Patent US20160264593A1 (priority 2013, published 2016)
Like-named read-outs stand apart in the source and are kept apart here.

Experiment: Pharmacokinetic study of 153 (and metabolite endothal) in SD rats, iv and po; plasma, liver, brain
Assay type: in vivo
Conditions: for 153 plasma concentration (title) / Liver concentration: PO per title; for MRT last: read-out: MRT (0-t)
Experimental: The blood, liver and brain tissue samples were collected at predetermined times from rats. […] Compound were diluted shortly before use in 4% sodium bicarbonate for sterile injection (this is the standard pediatric solution of NaHCO3 with a pH of about 8.5).
Compound 153 was freshly prepared by diluting the drugs shortly before use in 4% sodium bicarbonate for sterile injection (this is the standard pediatric solution of NaHCO3 with a pH of about 8.5). The final concentrations of 153 solutions were 0.25 mg/mL. The 153 solutions were administered via iv or po route at dose volume of 5 ml/kg according to the latest body weight. Compound 157 was freshly prepared by diluting the drugs shortly before use in 4% sodium bicarbonate for sterile injection (this is the standard pediatric solution of NaHCO3 with a pH of about 8.5). The final concentrations of […] solutions were 0.3 mg/mL. The 157 solutions were administered via iv or po route at dose volume of 5 ml/kg according to the latest body weight.
Twelve (12) female SD rats per group were dosed by iv with 153 or 157. The rats were fasted overnight prior to dosing, with free access to water. Foods were withheld for 2 hours post-dose. Blood, liver and brain tissue samples in two animals each group were collected at each time point, within 10% of the scheduled time for each time point. Two extra animals were used for analytic method development.
Blood (>0.3 mL) were collected via aorta abdominalis in anaesthetic animals into tubes containing heparin at 15 min, 1, 2, 6, 10 and 24 hours after iv administration. Liver and brain tissues were collected immediately after animal death. The liver and brain tissues were excised and rinsed with cold saline to avoid blood residual. Upon collection, each sample was placed on ice and the blood samples were subsequently centrifuged (4° C., 11000 rpm, 5 min) to separate plasma. The obtained plasma, liver and brain tissue samples were stored at −70° C. until LC-MS/MS analysis.
Two (2) female SD rats per group were dosed by po with 153 or 157. The rats were fasted overnight prior to dosing, with free access to water. Foods were withheld for 2 hours post-dose. Blood samples (>0.3 mL) were collected via aorta abdominalis in anaesthetic animals into tubes containing heparin at 30 min, 1, 2, 6, 10 and 24 hours after po administration.
To each sample, 20 μL IS-D (for blank samples, 20 μL acetonitrile:water (1:1) was added) and 300 μl acetonitrile was added. The sample mixture was vortexed for approximately 3 min. After centrifugation at 10000 rpm for 5 min at 4° C., 100 μL of the upper layer was transferred to a new tube and added 200 μL 0.4% formic acid in water (pH 6.0). The mixture was vortexed for approximately 3 min before injected onto the LC/MS/MS system for analysis.
On the day of the assay, the frozen liver and brain samples were thawed unassisted at room temperature. An about 200 mg weighed sample of each thawed tissue was placed into a plastic tube with water (0.6 mL) to facilitate homogenization. Tissue processing was conducted using a homogenizer for approximately 1 min, 200 μl homogenate was transferred into a fresh Eppendorf tube. To each tube, 50 μL IS-D was added and mixed. Then 600 μl acetonitrile was added and the sample mixture was vortexed for approximately 3 min. After centrifugation at 10000 rpm for 5 min at 4° C., 400 μL of the upper layer was transferred to a new tube and evaporate the supernatant to dryness at 35° C. Reconstitute the residue with 200 μL of 0.4% formic acid in water (pH6.0), and vortex for 3 min, submit for LC-MS/MS analysis.
Frozen unknown plasma samples were completely thawed at room temperature and vortexed thoroughly. With a pipette, 50 μL of plasma was transferred into a 2.0 mL Eppendorf tube. 50 μL of 0.1N HCl and 800 μL ethyl acetate were added into each sample. The sample mixture was vortexed for approximately 3 min.

[1] = female, SD, rat, in vivo, iv, 1.25 mg/kg, 153 in plasma, IV 1.25 mg/kg, Mean
[2] = female, SD, rat, in vivo, iv, 1.25 mg/kg, 153 in plasma, IV 1.25 mg/kg, rat 1
[3] = female, SD, rat, in vivo, iv, 1.25 mg/kg, 153 in plasma, IV 1.25 mg/kg, rat 2

SMILES: CCCOC(=O)C1C2CCC(O2)C1C(=O)N1CCN(C)CC1 (stereo not drawn) [Compound 153, 3-(4-Methylpiperazine-1-carbonyl)-7-oxa-bicyclo[2,2,1]heptane-2-carboxylic acid propyl ester]
- F (153, PO 1.25 mg/kg vs IV 1.25 mg/kg, Mean): 55.41%
- conversion to endothal in the plasma (statement) (153 administered to rats): converted to endothal
- Tmax (153 in plasma, IV 1.25 mg/kg, Mean): 15 min
- Tmax (153 in plasma, IV 1.25 mg/kg, rat 2): 15 min
- Tmax (153 in plasma, PO 1.25 mg/kg, rat 2): 30 min
- AUClast of 153 in brain (153 iv 1.25 mg/kg): 39.4 ng·h/g
- AUClast of 153 in liver (153 iv 1.25 mg/kg): 500 ng·h/g
- oral availability of 153 (statement) (153 po 1.25 mg/kg): orally available
- AUC (Brain, 1.25 mg/kg IV, Mean): 39.4 ng·h/mL
- AUC0-∞ (Brain, 1.25 mg/kg IV, Mean): 39.35 ng·h/mL
- Tmax (Brain, 1.25 mg/kg IV, Mean): 15 min
- AUC (Brain, 1.25 mg/kg IV, rat 1): 39.2 ng·h/mL
- AUC0-∞ (Brain, 1.25 mg/kg IV, rat 1): 39.2 ng·h/mL
- Tmax (Brain, 1.25 mg/kg IV, rat 1): 15 min
- AUC (Brain, 1.25 mg/kg IV, rat 2): 39.5 ng·h/mL
- AUC0-∞ (Brain, 1.25 mg/kg IV, rat 2): 39.5 ng·h/mL
- Tmax (Brain, 1.25 mg/kg IV, rat 2): 15 min
- AUC (Liver, 1.25 mg/kg IV, Mean): 500 ng·h/mL
- AUC0-∞ (Liver, 1.25 mg/kg IV, Mean): 500 ng·h/mL
- AUC (Liver, 1.25 mg/kg IV, rat 1): 547 ng·h/mL
- AUC0-∞ (Liver, 1.25 mg/kg IV, rat 1): 547 ng·h/mL
- Tmax (Liver, 1.25 mg/kg IV, rat 1): 15 min
- AUC (Liver, 1.25 mg/kg IV, rat 2): 453 ng·h/mL
- AUC0-∞ (Liver, 1.25 mg/kg IV, rat 2): 453 ng·h/mL
- Tmax (Liver, 1.25 mg/kg IV, rat 2): 15 min
- 153 plasma concentration (title) / Liver concentration (1.25 mg/kg, 6 hr, Rat 1): BLQ
- 153 plasma concentration (title) / Liver concentration (1.25 mg/kg, 6 hr, Rat 2): BLQ
- 153 plasma concentration (title) / Liver concentration (1.25 mg/kg, 10 hr, Rat 1): BLQ
- Tmax (female, SD, in vivo, 153 in plasma, IV 1.25 mg/kg, rat 1, read-out: Tmax): 15 min
- Tmax (female, SD, in vivo, 153 in plasma, PO 1.25 mg/kg, rat 1, read-out: Tmax): 30 min
- AUC(0-inf) [1]: 296 ng·h/mL
- AUC (female, SD, rat, in vivo, iv, 1.25 mg/kg, 153 in plasma, IV 1.25 mg/kg, Mean, read-out: AUC): 295 ng·h/mL
- Cmax (female, SD, rat, in vivo, iv, 1.25 mg/kg, 153 in plasma, IV 1.25 mg/kg, Mean, read-out: Cmax): 557 ng/mL
- MRT last [1]: 39.4 min
- half-life (female, SD, rat, in vivo, iv, 1.25 mg/kg, 153 in plasma, IV 1.25 mg/kg, Mean, read-out: T1/2 (converted)): 55.3 min
- AUC(0-inf) [2]: 303 ng·h/mL
- AUC (female, SD, rat, in vivo, iv, 1.25 mg/kg, 153 in plasma, IV 1.25 mg/kg, rat 1, read-out: AUC): 303 ng·h/mL
- Cmax (female, SD, rat, in vivo, iv, 1.25 mg/kg, 153 in plasma, IV 1.25 mg/kg, rat 1, read-out: Cmax): 563 ng/mL
- MRT last [2]: 40 min
- half-life (female, SD, rat, in vivo, iv, 1.25 mg/kg, 153 in plasma, IV 1.25 mg/kg, rat 1, read-out: T1/2 (converted)): 54.4 min
- AUC(0-inf) [3]: 288 ng·h/mL
- AUC (female, SD, rat, in vivo, iv, 1.25 mg/kg, 153 in plasma, IV 1.25 mg/kg, rat 2, read-out: AUC): 288 ng·h/mL
- Cmax (female, SD, rat, in vivo, iv, 1.25 mg/kg, 153 in plasma, IV 1.25 mg/kg, rat 2, read-out: Cmax): 550 ng/mL
- MRT last [3]: 38.8 min
- half-life (female, SD, rat, in vivo, iv, 1.25 mg/kg, 153 in plasma, IV 1.25 mg/kg, rat 2, read-out: T1/2 (converted)): 56 min
- half-life (female, SD, rat, in vivo, iv, 1.25 mg/kg, 153 iv 1.25 mg/kg, read-out: T1/2 of 153 in brain (converted)): 35.8 min
- half-life (female, SD, rat, in vivo, iv, 1.25 mg/kg, 153 iv 1.25 mg/kg, read-out: T1/2 of 153 in liver (converted)): 37.6 min
- half-life (female, SD, rat, in vivo, iv, 1.25 mg/kg, 153 iv 1.25 mg/kg, read-out: T1/2 of 153 in plasma (converted)): 55.3 min
- Cmax (female, SD, rat, in vivo, iv, 1.25 mg/kg, 153 iv 1.25 mg/kg, read-out: mean Cmax of 153 in brain): 42.7 ng/g
- Cmax (female, SD, rat, in vivo, iv, 1.25 mg/kg, 153 iv 1.25 mg/kg, read-out: mean Cmax of 153 in liver): 762 ng/g
- Cmax (female, SD, rat, in vivo, iv, 1.25 mg/kg, 153 iv 1.25 mg/kg, read-out: mean Cmax of 153 in plasma): 557 ng/mL
- Cmax (female, SD, rat, in vivo, iv, 1.25 mg/kg, Liver, 1.25 mg/kg IV, rat 1, read-out: Cmax): 872 ng/g
- MRT last (female, SD, rat, in vivo, iv, 1.25 mg/kg, Liver, 1.25 mg/kg IV, rat 1): 44.7 min
- half-life (female, SD, rat, in vivo, iv, 1.25 mg/kg, Liver, 1.25 mg/kg IV, rat 1, read-out: T1/2 (converted)): 36.5 min
- Cmax (female, SD, rat, in vivo, iv, 1.25 mg/kg, Liver, 1.25 mg/kg IV, rat 2, read-out: Cmax): 652 ng/g
- MRT last (female, SD, rat, in vivo, iv, 1.25 mg/kg, Liver, 1.25 mg/kg IV, rat 2): 49.5 min
- concentration at 0.25 h (female, SD, rat, in vivo, iv, 1.25 mg/kg, iv 1.25 mg/kg, Mean, read-out: 153 brain concentration): 42.7 ng/g
- concentration at 0.25 h (female, SD, rat, in vivo, iv, 1.25 mg/kg, iv 1.25 mg/kg, Mean, read-out: 153 liver concentration): 762 ng/g
- concentration at 0.25 h (female, SD, rat, in vivo, iv, 1.25 mg/kg, iv 1.25 mg/kg, Mean, read-out: 153 plasma concentration): 557 ng/mL
- concentration at 0.25 h (female, SD, rat, in vivo, iv, 1.25 mg/kg, iv 1.25 mg/kg, Rat 1, read-out: 153 brain concentration): 45 ng/g
- concentration at 0.25 h (female, SD, rat, in vivo, iv, 1.25 mg/kg, iv 1.25 mg/kg, Rat 1, read-out: 153 liver concentration): 872 ng/g
- concentration at 0.25 h (female, SD, rat, in vivo, iv, 1.25 mg/kg, iv 1.25 mg/kg, Rat 1, read-out: 153 plasma concentration): 563 ng/mL
- concentration at 0.25 h (female, SD, rat, in vivo, iv, 1.25 mg/kg, iv 1.25 mg/kg, Rat 2, read-out: 153 brain concentration): 40.3 ng/g
- concentration at 0.25 h (female, SD, rat, in vivo, iv, 1.25 mg/kg, iv 1.25 mg/kg, Rat 2, read-out: 153 liver concentration): 652 ng/g
- concentration at 0.25 h (female, SD, rat, in vivo, iv, 1.25 mg/kg, iv 1.25 mg/kg, Rat 2, read-out: 153 plasma concentration): 550 ng/mL
- concentration at 1 h (female, SD, rat, in vivo, iv, 1.25 mg/kg, iv 1.25 mg/kg, 1 hr, Mean, read-out: 153 brain concentration): 14.1 ng/g
